From ChEMBL document CHEMBL3351526, “Structure-based optimization of non-peptidic Cathepsin D inhibitors” (Bioorg Med Chem Lett, 2014)
Calls of active or inactive are those of the source. The rule behind the calls is not given here.

How the values were obtained:
[1] = Stability in human liver microsomes assessed as intrinsic clearance; format: ADME; settings: read-out: CLH
[2] = Stability in rat liver microsomes assessed as intrinsic clearance; format: ADME; settings: read-out: CLH
[3] = Stability in mouse liver microsomes assessed as intrinsic clearance; format: ADME; settings: read-out: CLH
Cathepsin D [4] = target: T1, Cathepsin D (Homo sapiens, UniProt P07339); experiment: Inhibition of human liver cathepsin D using MCA-labeled GKPILFFRLK(Dnp)-D-R-NH2 peptide by fluorescence-based assay
Renin = target: T2, Renin (Homo sapiens, UniProt P00797); experiment: Inhibition of human recombinant renin using quenched Dabcyl-g-Abu-IHPFHLVIHT-Edans peptide substrate by fluorescence-based assay
T2 sequence (P00797 whole entry): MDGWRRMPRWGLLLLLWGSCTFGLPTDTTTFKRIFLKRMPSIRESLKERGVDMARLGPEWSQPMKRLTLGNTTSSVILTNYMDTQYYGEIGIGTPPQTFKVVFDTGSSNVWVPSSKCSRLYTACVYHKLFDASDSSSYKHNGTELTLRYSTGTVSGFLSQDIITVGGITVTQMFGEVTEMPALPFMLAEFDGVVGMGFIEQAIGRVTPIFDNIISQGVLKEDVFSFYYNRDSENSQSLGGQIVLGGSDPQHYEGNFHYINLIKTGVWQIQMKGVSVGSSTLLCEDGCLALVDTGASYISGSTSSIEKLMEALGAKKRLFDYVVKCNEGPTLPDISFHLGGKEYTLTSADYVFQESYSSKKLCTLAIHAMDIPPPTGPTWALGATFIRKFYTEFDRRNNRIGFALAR

Cathepsin D (Bos taurus) = target: T3, Cathepsin D (Bos taurus) (UniProt P80209); experiment: Inhibition of cathepsin D in bovine cartilage explants assessed as reduction in sulphated GAGs level at <1 uM after 3 days by spectrophotometric 1,9-dimethylmethylene blue shift assay based glycosaminoglycan release method
T3 sequence (whole entry): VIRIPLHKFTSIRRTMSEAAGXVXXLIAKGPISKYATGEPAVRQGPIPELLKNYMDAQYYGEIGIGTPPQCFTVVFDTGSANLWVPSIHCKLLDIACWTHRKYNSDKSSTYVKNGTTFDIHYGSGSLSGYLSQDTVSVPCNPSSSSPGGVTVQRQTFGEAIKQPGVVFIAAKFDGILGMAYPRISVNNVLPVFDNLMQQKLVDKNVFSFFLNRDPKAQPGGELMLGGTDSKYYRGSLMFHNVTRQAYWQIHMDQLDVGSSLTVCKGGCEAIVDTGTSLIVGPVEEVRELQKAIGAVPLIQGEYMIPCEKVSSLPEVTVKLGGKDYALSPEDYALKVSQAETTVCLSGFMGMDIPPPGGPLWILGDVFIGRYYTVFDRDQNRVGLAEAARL

Cathepsin D [5] = target: T4, Cathepsin D (Bos taurus, UniProt P80209); experiment: Inhibition of cathepsin D in bovine cartilage explants assessed as reduction in sulphated GAGs level after 3 days by spectrophotometric 1,9-dimethylmethylene blue shift assay based glycosaminoglycan release method
T4 sequence (P80209 whole entry): T3 sequence (whole entry)

[6] = Apparent permeability across apical to basolateral side in human Caco2 cells; format: ADME, cell-based; settings: Caco-2
Cathepsin D [7] = target: T1, Cathepsin D
[8] = Inhibition of pepsin (unknown origin); set-up: species or system Homo sapiens

T1 sequence (P07339 65-162 limits assumed): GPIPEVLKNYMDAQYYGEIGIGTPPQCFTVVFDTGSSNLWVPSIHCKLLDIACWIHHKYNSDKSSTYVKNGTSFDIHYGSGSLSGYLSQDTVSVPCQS
T1 sequence (P07339 169-412 limits assumed): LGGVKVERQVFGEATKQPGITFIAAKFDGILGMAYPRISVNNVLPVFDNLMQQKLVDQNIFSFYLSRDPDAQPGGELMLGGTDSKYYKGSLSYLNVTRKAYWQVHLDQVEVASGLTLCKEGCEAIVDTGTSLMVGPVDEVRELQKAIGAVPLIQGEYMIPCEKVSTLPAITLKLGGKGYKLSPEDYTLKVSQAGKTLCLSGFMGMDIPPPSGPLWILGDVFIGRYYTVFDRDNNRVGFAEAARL

Row | SMILES | microsomal CLint [1] [µL/min/mg] | microsomal CLint [2] [µL/min/mg] | IC50 (Cathepsin D [4]) [µM] | IC50 (Renin) [µM] | further results
1 | COc1ccc(CC(=O)NC(=N)N[C@H](CC(C)C)C(=O)NCc2ccc(-c3nnn[nH]3)cc2)cc1OC | 69 | < 10 | – | – | microsomal CLint [3]: < 10 µL/min/mg
2 | COc1cc(Br)c(CC(=O)NC(=N)N[C@H](CC(C)C)C(=O)NCc2cccc(-c3nnn[nH]3)c2)cc1OC | 107 | 17 | – | – | microsomal CLint [3]: 38 µL/min/mg
3 | COc1cc(CC(=O)NC(=N)NCc2ccccc2Cl)c([N+](=O)[O-])cc1OC | – | – | 3 | > 30 | inhibition (Cathepsin D (Bos taurus)): inactive
4 | COc1ccc(CC(=O)NC(=N)NCc2ccc(N)cc2)cc1OC | – | – | 29 | > 30 | –
5 | COc1cc(CC(=O)NC(=N)NCc2ccccc2)c([N+](=O)[O-])cc1OC | – | – | 10 | > 30 | –
6 | COc1ccc(CC(=O)NC(=N)N[C@H](CC2CCCCC2)C(=O)NCc2ccc(F)c(F)c2)cc1OC | – | – | 0.17 | – | –
7 | COc1ccc(CC(=O)NC(=N)N[C@H](CC2CCCCC2)C(=O)NCc2ccc(-c3nnn[nH]3)cc2)cc1OC | 76 | 38 | – | – | IC50 (Cathepsin D [5]): 1.8 µM; microsomal CLint [3]: < 10 µL/min/mg; Papp A→B [6]: 0.25 ×10⁻⁶ cm/s
8 | COc1ccc(CCC(=O)NC(=N)NCc2ccccc2)cc1OC | – | – | 25 | 20 | –
9 | COc1ccc(CNC(=O)[C@@H](CC2CCCCC2)NC(=N)NC(=O)Cc2ccc(OC)c(OC)c2)cc1F | – | – | – | 13 | –
10 | COc1cc(Br)c(C(=O)N[C@@H](Cc2cccc(Oc3ccccc3)c2)[C@@H](O)CN(CCc2ccc(Cl)cc2Cl)C(=O)CCN2C(=O)c3ccccc3C2=O)cc1OC | – | – | – | – | inhibition (Cathepsin D (Bos taurus)): inactive; IC50 (Cathepsin D [7]): 0.085 µM
11 | COc1ccc(CC(=O)NC(=N)N[C@H](CC(C)C)C(=O)NCc2ccc(-c3nnn[nH]3)c(F)c2)cc1OC | 54 | < 10 | – | – | –
12 | COc1cc(CC(=O)NC(=N)NCc2ccc(Cl)c(Cl)c2)c([N+](=O)[O-])cc1OC | – | – | 0.44 | > 30 | inhibition (Cathepsin D (Bos taurus)): inactive
13 | COc1ccc(CNC(=O)[C@@H](Cc2ccccc2)NC(=N)NC(=O)Cc2ccc(OC)c(OC)c2)cc1OC | > 1000 | 384 | – | > 30 | IC50 (Cathepsin D [5]): 0.33 µM
14 | COc1cc(Br)c(CC(=O)NC(=N)N[C@H](CC2CCCCC2)C(=O)NCc2cccc(-c3nnn[nH]3)c2)cc1OC | 240 | 33 | – | – | microsomal CLint [3]: 40 µL/min/mg
15 | COc1cc(CC(=O)NC(=N)NCc2ccc(Cl)cc2)c([N+](=O)[O-])cc1OC | – | – | 1.5 | > 30 | inhibition (Cathepsin D (Bos taurus)): inactive
16 | COc1cc(CNC(=O)[C@@H](CC(C)C)NC(=N)NC(=O)Cc2ccc(OC)c(OC)c2)ccc1F | 966 | 148 | – | 8.7 | IC50 (Cathepsin D [5]): 0.62 µM
17 | CC(C)CC(=O)N[C@H](C(=O)N[C@H](C(=O)N[C@@H](CC(C)C)[C@@H](O)CC(=O)N[C@@H](C)C(=O)N[C@@H](CC(C)C)[C@@H](O)CC(=O)O)C(C)C)C(C)C [PEPSTATIN] | – | – | – | – | IC50 [8]: 0.0001 µM
18 | COc1ccc(Cl)c(CC(=O)NC(=N)NCc2ccccc2)c1 | – | – | 6.1 | > 30 | –
19 | COc1ccc(CNC(=O)[C@@H](CC(C)C)NC(=N)NC(=O)Cc2ccc(OC)c(OC)c2)cc1OC | 262 | 143 | – | – | –
20 | COc1ccc(CNC(=N)NC(=O)Cc2cc(OC)c(OC)cc2[N+](=O)[O-])cc1OC | – | – | 2.7 | > 30 | inhibition (Cathepsin D (Bos taurus)): inactive
21 | COc1cc(CCCC(=O)NC(=N)NCc2ccccc2)c([N+](=O)[O-])cc1OC | – | – | 18 | > 30 | –
22 | COc1ccc(CC(=O)NC(=N)NCc2ccc(C)cc2)cc1OC | – | – | 1.9 | > 30 | inhibition (Cathepsin D (Bos taurus)): inactive
23 | COc1cc(CNC(=O)[C@@H](CC2CCCCC2)NC(=N)NC(=O)Cc2cc(OC)c(OC)cc2Br)ccc1F | > 1000 | 823 | – | > 30 | IC50 (Cathepsin D [5]): 0.9 µM
24 | COc1cc(CNC(=O)[C@@H](CC2CCCCC2)NC(=N)NC(=O)Cc2ccc(OC)c(OC)c2)ccc1F | > 1000 | 241 | – | 16 | IC50 (Cathepsin D [5]): 0.5 µM; Papp A→B [6]: 5 ×10⁻⁶ cm/s
